Reference: the NIST ThermoML archive (doi:10.1021/acs.jced.7b00119)
Several values for one entry are separate records, joined by “and”; a condition that tells them apart may be missing. Equal values may be shown once.

Assays:
[1] = Liquid, Closed cell (Static) method
[2] = excess molar enthalpy (molar enthalpy of mixing); xn = mol fraction of the nth substance listed; conditions: Liquid, Flow calorimetry

Cc1ccccc1 [toluene]
Conditions | vapor or sublimation pressure [kPa]
[1], 353.15 K | 38.92

CC(=O)N(C)C [N,N-dimethylethanamide] + CCCCCCC
[2], 413.15 K, 1824 kPa
Conditions | excess molar enthalpy [kJ/mol]
x2 = 0.016 | 0.129
x2 = 0.0323 | 0.259
x2 = 0.0659 | 0.51
x2 = 0.1007 | 0.742
x2 = 0.137 | 0.956
x2 = 0.1747 | 1.15
x2 = 0.2139 | 1.33
x2 = 0.2548 | 1.5
x2 = 0.2974 | 1.64
x2 = 0.3419 | 1.77
x2 = 0.3883 | 1.88
x2 = 0.4369 | 1.95
x2 = 0.4878 | 1.99
x2 = 0.5411 | 2.01
x2 = 0.597 | 1.98
x2 = 0.6557 | 1.91
x2 = 0.7175 | 1.79
x2 = 0.7825 | 1.57
x2 = 0.8511 | 1.25
x2 = 0.9234 | 0.756
x2 = 0.9612 | 0.418

CCOC(C)=O [ethyl acetate]
Conditions | vapor or sublimation pressure [kPa]
[1], 353.15 K | 111.76

ClCCl [dichloromethane] + CC(=O)N(C)C
[2], 323.15 K, 1273 kPa
Conditions | excess molar enthalpy [kJ/mol]
x1 = 0.0709 | -0.424
x1 = 0.1387 | -0.788
x1 = 0.2037 | -1.11
x1 = 0.2659 | -1.37
x1 = 0.3257 | -1.59
x1 = 0.3831 | -1.72
x1 = 0.4383 | -1.83
x1 = 0.4914 | -1.9
x1 = 0.5425 | -1.92
x1 = 0.5917 | -1.91
x1 = 0.6391 | -1.84
x1 = 0.6849 | -1.75
x1 = 0.7291 | -1.61
x1 = 0.7718 | -1.46
x1 = 0.813 | -1.27
x1 = 0.8529 | -1.05
x1 = 0.8914 | -0.815
x1 = 0.9288 | -0.554
x1 = 0.965 | -0.285

C=CCCCCCC [oct-1-ene]
[1]
Conditions | vapor or sublimation pressure [kPa]
328.15 K | 10.12
363.15 K | 39.2

CC(=O)N(C)C [N,N-dimethylethanamide]
[1]
Conditions | vapor or sublimation pressure
328.15 K | 1.61 kPa and 1.64 kPa
333.15 K | 2.23 kPa
343.15 K | 3.39 kPa
353.15 K | 5.32 kPa [middle of 5 runs]
363.15 K | 8.46 kPa

CC(=O)N(C)C [N,N-dimethylethanamide] + CO
[2], 413.15 K, 1824 kPa
Conditions | excess molar enthalpy [kJ/mol]
x2 = 0.1079 | -0.313
x2 = 0.2034 | -0.543
x2 = 0.2885 | -0.712
x2 = 0.3648 | -0.822
x2 = 0.4337 | -0.889
x2 = 0.4961 | -0.921
x2 = 0.553 | -0.924
x2 = 0.605 | -0.906
x2 = 0.6527 | -0.866
x2 = 0.6967 | -0.823
x2 = 0.7374 | -0.756
x2 = 0.7751 | -0.684
x2 = 0.8101 | -0.606
x2 = 0.8428 | -0.523
x2 = 0.8733 | -0.439
x2 = 0.9019 | -0.355
x2 = 0.9287 | -0.265
x2 = 0.9539 | -0.177
x2 = 0.9776 | -0.0892

CO [methanol]
Conditions | vapor or sublimation pressure [kPa]
[1], 343.15 K | 125.65

CC(=O)N(C)C [N,N-dimethylethanamide] + CCCCCC
[2]
Conditions | excess molar enthalpy [kJ/mol]
363.15 K, 1982 kPa, x2 = 0.0358 | 0.234
363.15 K, 1982 kPa, x2 = 0.0726 | 0.477
363.15 K, 1982 kPa, x2 = 0.1106 | 0.704
363.15 K, 1982 kPa, x2 = 0.1498 | 0.913
363.15 K, 1982 kPa, x2 = 0.1902 | 1.1
363.15 K, 1982 kPa, x2 = 0.2319 | 1.26
363.15 K, 1982 kPa, x2 = 0.275 | 1.41
363.15 K, 1982 kPa, x2 = 0.3196 | 1.53
363.15 K, 1982 kPa, x2 = 0.3657 | 1.63
363.15 K, 1982 kPa, x2 = 0.4134 | 1.71
363.15 K, 1982 kPa, x2 = 0.4627 | 1.75
363.15 K, 1982 kPa, x2 = 0.5138 | 1.78
363.15 K, 1982 kPa, x2 = 0.5668 | 1.78
363.15 K, 1982 kPa, x2 = 0.6218 | 1.75
363.15 K, 1982 kPa, x2 = 0.6788 | 1.67
363.15 K, 1982 kPa, x2 = 0.7381 | 1.55
363.15 K, 1982 kPa, x2 = 0.7997 | 1.36
363.15 K, 1982 kPa, x2 = 0.8638 | 1.08
363.15 K, 1982 kPa, x2 = 0.9305 | 0.657
413.15 K, 1824 kPa, x2 = 0.0179 | 0.121
413.15 K, 1824 kPa, x2 = 0.0361 | 0.247
413.15 K, 1824 kPa, x2 = 0.0733 | 0.49
413.15 K, 1824 kPa, x2 = 0.1116 | 0.711
413.15 K, 1824 kPa, x2 = 0.151 | 0.913
413.15 K, 1824 kPa, x2 = 0.1917 | 1.1
413.15 K, 1824 kPa, x2 = 0.2337 | 1.27
413.15 K, 1824 kPa, x2 = 0.277 | 1.42
413.15 K, 1824 kPa, x2 = 0.3217 | 1.54
413.15 K, 1824 kPa, x2 = 0.3679 | 1.66
413.15 K, 1824 kPa, x2 = 0.4157 | 1.76
413.15 K, 1824 kPa, x2 = 0.4651 | 1.81
413.15 K, 1824 kPa, x2 = 0.5163 | 1.85
413.15 K, 1824 kPa, x2 = 0.5692 | 1.85
413.15 K, 1824 kPa, x2 = 0.6241 | 1.81
413.15 K, 1824 kPa, x2 = 0.681 | 1.74
413.15 K, 1824 kPa, x2 = 0.74 | 1.62
413.15 K, 1824 kPa, x2 = 0.8013 | 1.41
413.15 K, 1824 kPa, x2 = 0.8649 | 1.11
413.15 K, 1824 kPa, x2 = 0.9311 | 0.661
413.15 K, 1824 kPa, x2 = 0.9652 | 0.36

CCCCCC [hexane]
Conditions | vapor or sublimation pressure [kPa]
[1], 353.15 K | 142.4
